What was measured:
[1] = target: T1, human recombinant HDAC6 (Homo sapiens, UniProt Q9UBN7); experiment: HDAC6 enzyme activity inhibition assay (in vitro, fluorimetric); type: biochemical; details: for HDAC6 selectivity (fold): HDAC6 selectivity over HDAC1; for IC50: human recombinant HDAC6, fluorimetric kit, same protocol as HDAC1
T1 construct: purchased Calbiochem 382180
T1 sequence (Q9UBN7 1-1215): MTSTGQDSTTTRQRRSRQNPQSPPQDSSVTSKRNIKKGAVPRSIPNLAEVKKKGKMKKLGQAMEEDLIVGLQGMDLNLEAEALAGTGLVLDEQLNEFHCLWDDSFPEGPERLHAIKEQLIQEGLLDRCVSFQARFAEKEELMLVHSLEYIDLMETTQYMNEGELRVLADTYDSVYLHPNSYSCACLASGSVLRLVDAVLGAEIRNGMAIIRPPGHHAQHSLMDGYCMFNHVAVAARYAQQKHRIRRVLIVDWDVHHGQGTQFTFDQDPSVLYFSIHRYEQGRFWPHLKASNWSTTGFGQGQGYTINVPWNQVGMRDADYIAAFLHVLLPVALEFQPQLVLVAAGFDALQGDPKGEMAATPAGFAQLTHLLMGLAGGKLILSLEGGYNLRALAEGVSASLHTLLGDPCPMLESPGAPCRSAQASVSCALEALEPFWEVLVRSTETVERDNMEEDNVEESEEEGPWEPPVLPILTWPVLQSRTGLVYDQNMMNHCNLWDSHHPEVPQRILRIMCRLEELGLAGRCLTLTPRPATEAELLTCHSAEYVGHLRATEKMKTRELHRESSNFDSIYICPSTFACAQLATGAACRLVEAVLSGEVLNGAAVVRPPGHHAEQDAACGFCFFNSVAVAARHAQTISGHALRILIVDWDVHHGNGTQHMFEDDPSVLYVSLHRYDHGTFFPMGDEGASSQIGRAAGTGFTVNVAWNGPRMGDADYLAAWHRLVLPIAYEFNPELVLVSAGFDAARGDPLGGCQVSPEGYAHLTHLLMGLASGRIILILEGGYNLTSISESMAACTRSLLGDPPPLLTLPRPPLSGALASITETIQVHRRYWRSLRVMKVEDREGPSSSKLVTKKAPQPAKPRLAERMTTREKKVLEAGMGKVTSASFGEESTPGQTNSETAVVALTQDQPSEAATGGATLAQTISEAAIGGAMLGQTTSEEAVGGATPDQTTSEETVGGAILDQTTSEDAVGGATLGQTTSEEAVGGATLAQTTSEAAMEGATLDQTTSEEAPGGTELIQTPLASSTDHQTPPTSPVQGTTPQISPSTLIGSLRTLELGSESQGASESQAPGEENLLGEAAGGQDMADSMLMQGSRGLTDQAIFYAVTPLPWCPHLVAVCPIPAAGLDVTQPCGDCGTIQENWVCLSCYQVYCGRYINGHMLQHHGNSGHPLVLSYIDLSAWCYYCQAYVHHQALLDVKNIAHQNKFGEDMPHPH
How it was run: (§1)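 Human recombinant enzyme (0.3 μg for HDAC1) reacted with 10 μM Fluor de Lys-SIRT1 substrate and 5-fold compound dilutions at 30 °C for 60 min, then developer for 30 min. Fluorescence read at Ex 360/Em 460; IC50 calculated. HDAC6 run by the same protocol.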

[2] = target: T2, human recombinant HDAC1 (Homo sapiens, UniProt Q13547); experiment: HDAC1 enzyme activity inhibition assay (in vitro, fluorimetric); type: biochemical; details: human recombinant HDAC1, fluorimetric kit, 30° C. 60 minutes
T2 construct: purchased Enzo Life Science BML-SE456
T2 sequence (Q13547 whole entry): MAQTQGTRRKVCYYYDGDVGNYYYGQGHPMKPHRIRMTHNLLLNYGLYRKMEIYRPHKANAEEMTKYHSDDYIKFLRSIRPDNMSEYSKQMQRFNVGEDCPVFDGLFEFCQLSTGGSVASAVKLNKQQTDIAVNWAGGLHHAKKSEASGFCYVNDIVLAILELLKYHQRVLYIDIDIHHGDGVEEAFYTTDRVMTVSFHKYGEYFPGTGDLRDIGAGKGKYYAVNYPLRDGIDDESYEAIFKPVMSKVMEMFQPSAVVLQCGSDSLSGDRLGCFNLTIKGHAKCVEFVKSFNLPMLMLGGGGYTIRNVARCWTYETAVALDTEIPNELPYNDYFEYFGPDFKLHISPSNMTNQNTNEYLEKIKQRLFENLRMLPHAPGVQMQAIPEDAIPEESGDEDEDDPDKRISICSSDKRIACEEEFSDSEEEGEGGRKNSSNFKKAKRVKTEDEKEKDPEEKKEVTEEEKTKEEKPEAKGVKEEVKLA
How it was run: as §1

| SMILES | HDAC6 selectivity (fold) [1] [fold] | IC50 [1] [nM] | IC50 [2] [nM] |
| --- | --- | --- | --- |
| C[C@@H]1CN(Cc2ccc(C(=O)NO)cc2)C[C@H](C)N1Cc1ccccc1F [Compound 211, 4-(((3R,5S)-4-(2-fluorobenzyl)-3,5-dimethylpiperazin-1-yl)methyl)-N-hydroxybenzamide] | >154 | 65 | > 10000 |
| C[C@@H]1CN(C(=O)Cc2cccc(C3=CCC(C)(C)CC3)c2)C[C@H](C)N1Cc1ccc(C(=O)NO)cc1 [Compound 253, 4-(((2S,6R)-4-(2-(4′,4′-dimethyl-2′,3′,4′,5′-tetrahydro-[1,1′-biphenyl]-3-yl)acetyl)-2,6-dimethylpiperazin-1-yl)methyl)-N-hydroxybenzamide] | 15 | 1540 | 22600 |
| C[C@@H]1CN(Cc2ccc(C(=O)NO)cc2)C[C@H](C)N1C(=O)Cc1ccccc1 [Compound 146, 4-(((3R,5S)-3,5-dimethyl-4-(2-phenylacetyl)piperazin-1-yl)methyl)-N-hydroxybenzamide] | 314 | 19 | 6000 |
| C[C@@H]1CN(Cc2ccc(C(=O)NO)cc2)C[C@H](C)N1C(=O)c1ccccc1C1=CCC(C)(C)CC1 [Compound 288, 4-(((3R,5S)-4-(4′,4′-dimethyl-2′,3′,4′,5′-tetrahydro-[1,1′-biphenyl]-2-carbonyl)-3,5-dimethylpiperazin-1-yl)methyl)-N-hydroxybenzamide] | 33 | 326 | 10700 |
| C[C@@H]1CN(Cc2ccc(C(=O)NO)cc2)C[C@H](C)N1C(=O)c1cccc(Cl)c1 [Compound 121, 4-(((3R,5S)-4-(3-chlorobenzoyl)-3,5-dimethylpiperazin-1-yl)methyl)-N-hydroxybenzamide] | 407 | 29 | 11800 |
| C[C@@H]1CN(Cc2ccc(C(=O)NO)cc2)C[C@H](C)N1Cc1cncnc1 [Compound 355, 4-(((3R,5S)-3,5-dimethyl-4-(pyrimidin-5-ylmethyl)piperazin-1-yl)methyl)-N-hydroxybenzamide] | 20 | 1060 | 21000 |
| C[C@@H]1CN(C(=O)N2CCc3ccccc32)C[C@H](C)N1Cc1ccc(C(=O)NO)cc1 [Compound 197, N-hydroxy-4-(((2S,6R)-4-(indoline-1-carbonyl)-2,6-dimethylpiperazin-1-yl)methyl)benzamide] | 12 | 177 | 2100 |
| C[C@@H]1CN(C(=O)c2ccccc2C2=CCOCC2)C[C@H](C)N1Cc1ccc(C(=O)NO)cc1 [Compound 278, 4-(((2S,6R)-4-(2-(3,6-dihydro-2H-pyran-4-yl)benzoyl)-2,6-dimethylpiperazin-1-yl)methyl)-N-hydroxybenzamide] | 16 | 911 | 14400 |
| CC(C)CCN1C[C@@H](C)N(Cc2ccc(C(=O)NO)cc2)[C@@H](C)C1 [Compound 271, N-hydroxy-4-(((2S,6R)-4-isopentyl-2,6-dimethylpiperazin-1-yl)methyl)benzamide] | <13 | > 1000 | 12500 |
| C[C@@H]1CN(Cc2ccc(C(=O)NO)cc2)C[C@H](C)N1C(=O)c1ccc(CN2CC[C@@H](F)C2)cc1 [Compound 460, 4-(((3R,5S)-4-(4-(((R)-3-fluoropyrrolidin-1-yl)methyl)benzoyl)-3,5-dimethylpiperazin-1-yl)methyl)-N-hydroxybenzamide] | 20 | 219 | 4400 |
| CCN(CC)Cc1cccc(CN2C[C@@H](C)N(Cc3ccc(/C=C/C(=O)NO)cc3)[C@@H](C)C2)c1 [Compound 476, (E)-3-(4-(((2S,6R)-4-(3-((diethylamino)methyl)benzyl)-2,6-dimethylpiperazin-1-yl)methyl)phenyl)-N-hydroxyacrylamide] | 6 | 142 | 900 |
| C[C@@H]1CN(Cc2ccc(C(=O)NO)c(O)c2)C[C@H](C)N1Cc1ccccc1 [Compound 652, 4-(((3R,5S)-4-benzyl-3,5-dimethylpiperazin-1-yl)methyl)-N,2-dihydroxybenzamide] | >11 | 880 | > 10000 |
| C[C@@H]1CN(Cc2ccc(C(=O)NO)cc2)C[C@H](C)N1C(=O)c1ccccc1-c1ccoc1 [Compound 284, 4-(((3R,5S)-4-(2-(furan-3-yl)benzoyl)-3,5-dimethylpiperazin-1-yl)methyl)-N-hydroxybenzamide] | 84 | 68 | 5700 |
| CCCN1[C@H](C)CN(Cc2ccc(C(=O)NO)cc2)C[C@@H]1C [Compound 148, 4-(((3R,5S)-3,5-dimethyl-4-propylpiperazin-1-yl)methyl)-N-hydroxybenzamide] | 132 | 117 | 15400 |
| CC(=O)N1CC=C(c2ccccc2CN2[C@H](C)CN(Cc3ccc(C(=O)NO)cc3)C[C@@H]2C)CC1 [Compound 482, 4-(((3R,5S)-4-(2-(1-acetyl-1,2,3,6-tetrahydropyridin-4-yl)benzyl)-3,5-dimethylpiperazin-1-yl)methyl)-N-hydroxybenzamide] | 121 | 103 | 12500 |
| C[C@@H]1CN(C(=O)c2ccccc2-c2cccnc2)C[C@H](C)N1Cc1ccc(C(=O)NO)cc1 [Compound 279, 4-(((2S,6R)-2,6-dimethyl-4-(2-(pyridin-3-yl)benzoyl)piperazin-1-yl)methyl)-N-hydroxybenzamide] | >13 | 769 | > 10000 |
| COc1ccc(C(=O)N2[C@H](C)CN(Cc3ccc(C(=O)NO)cc3)C[C@@H]2C)cc1 [Compound 291, N-hydroxy-4-(((3R,5S)-4-(4-methoxybenzoyl)-3,5-dimethylpiperazin-1-yl)methyl)benzamide] | 24 | 55 | 1300 |
| C[C@@H]1CN(Cc2ccc(-n3ccnc3)cc2)C[C@H](C)N1Cc1ccc(C(=O)NO)cc1 [Compound 301, 4-(((2S,6R)-4-(4-(1H-imidazol-1-yl)benzyl)-2,6-dimethylpiperazin-1-yl)methyl)-N-hydroxybenzamide] | 11 | 253 | 2800 |
| C[C@@H]1CN(Cc2ccc(C(=O)NO)cc2)C[C@H](C)N1C(=O)C(C)(C)C [Compound 292, 4-(((3R,5S)-3,5-dimethyl-4-pivaloylpiperazin-1-yl)methyl)-N-hydroxybenzamide] | 76 | 74 | 5600 |
| C[C@@H]1CN(Cc2ccc(C(=O)NO)cc2)C[C@H](C)N1Cc1cccc(Cl)c1C(F)(F)F [Compound 267, 4-(((3R,5S)-4-(3-chloro-2-(trifluoromethyl)benzyl)-3,5-dimethylpiperazin-1-yl)methyl)-N-hydroxybenzamide] | 75 | 188 | 14200 |
| C[C@@H]1CN(Cc2ccc(C(=O)NO)cc2)C[C@H](C)N1CC(F)(F)F [Compound 149, 4-(((3R,5S)-3,5-dimethyl-4-(2,2,2-trifluoroethyl)piperazin-1-yl)methyl)-N-hydroxybenzamide] | >125 | 80 | > 10000 |
| C[C@@H]1CN(Cc2ccc(C(=O)NO)cc2)C[C@H](C)N1Cc1cccc(CN2CCN(CC(C)(C)F)CC2)c1 [Compound 387, 4-(((3R,5S)-4-(3-((4-(2-fluoro-2-methylpropyl)piperazin-1-yl)methyl)benzyl)-3,5-dimethylpiperazin-1-yl)methyl)-N-hydroxybenzamide] | >118 | 85 | > 10000 |
